From ChEMBL document CHEMBL1158359, “A novel and efficient one step synthesis of 2-amino-5-cyano-6-hydroxy-4-aryl pyrimidines and their anti-bacterial activity” (2009)

Assays:
Format in all cases: functional
Settings in all cases: read-out: IZ
Staphylococcus aureus [1] = assay: Antibacterial activity against Staphylococcus aureus at 750 ppm after 1 hr by agar well diffusion method
Escherichia coli [2] = assay: Antibacterial activity against Escherichia coli at 500 ppm after 1 hr by agar well diffusion method
Escherichia coli [3] = assay: Antibacterial activity against Escherichia coli at 250 ppm after 1 hr by agar well diffusion method
Escherichia coli [4] = assay: Antibacterial activity against Escherichia coli at 750 ppm after 1 hr by agar well diffusion method
Staphylococcus aureus [5] = assay: Antibacterial activity against Staphylococcus aureus at 500 ppm after 1 hr by agar well diffusion method
Staphylococcus aureus [6] = assay: Antibacterial activity against Staphylococcus aureus at 250 ppm after 1 hr by agar well diffusion method
Staphylococcus aureus [7] = assay: Antibacterial activity against Staphylococcus aureus at 50 ppm after 1 hr by agar well diffusion method
Staphylococcus aureus [8] = assay: Antibacterial activity against Staphylococcus aureus at 100 ppm after 1 hr by agar well diffusion method

| Compound | zone of inhibition at 750 ppm (Staphylococcus aureus [1]) [mm] | zone of inhibition at 500 ppm (Escherichia coli [2]) [mm] | zone of inhibition at 250 ppm (Escherichia coli [3]) [mm] | zone of inhibition at 750 ppm (Escherichia coli [4]) [mm] | zone of inhibition at 500 ppm (Staphylococcus aureus [5]) [mm] | zone of inhibition at 250 ppm (Staphylococcus aureus [6]) [mm] | zone of inhibition at 50 ppm (Staphylococcus aureus [7]) [mm] | zone of inhibition at 100 ppm (Staphylococcus aureus [8]) [mm] |
| --- | --- | --- | --- | --- | --- | --- | --- | --- |
| N#Cc1c(O)nc(N)nc1-c1cccc(Cl)c1 | 5 | 7 | 4 | 11 |  |  |  |  |
| COc1cc(-c2nc(N)nc(O)c2C#N)cc(OC)c1OC | 13 |  |  |  | 10 |  |  |  |
| N#Cc1c(O)nc(N)nc1-c1ccccc1[N+](=O)[O-] | 15 | 5 | 3 | 9 | 12 |  |  |  |
| N#Cc1c(O)nc(N)nc1-c1cccc([N+](=O)[O-])c1 | 14 |  |  |  | 8 | 4 |  |  |
| N#Cc1c(O)nc(N)nc1-c1ccccc1Cl | 14 | 8 |  | 10 | 9 | 5 |  |  |
| N#Cc1c(O)nc(N)nc1-c1ccc(O)cc1 | 11 | 6 |  | 10 | 8 | 5 |  |  |
| CN(C)c1ccc(-c2nc(N)nc(O)c2C#N)cc1 | 11 | 7 | 4 | 11 | 9 | 7 |  |  |
| N#Cc1c(O)nc(N)nc1C/C=C/c1ccccc1 | 9 | 9 | 7 | 12 | 5 |  |  |  |
| COc1ccc(C2NC(=N)NC(=O)C2C#N)cc1 (stereo unspecified) | 5 |  |  |  |  |  |  |  |
| N#Cc1c(O)nc(N)nc1-c1ccccc1 | 18 |  |  |  | 15 | 15 | 10 | 12 |
